What was measured:
proline hydroxylase [1] = experiment: Inhibition of collagen proline hydroxylation in organ culture (isolated calvariae / EHS sarcoma tissue), ratio of 14C-proline to 14C-hydroxyproline; type: cell-based; details: Inhibition 50 %; incubation with 14C-proline, ratio 14C-proline to 14C-hydroxyproline in extracted collagen; read-out: Conc. giving the stated Inhibition, % (50)
Experimental: Determination of the inhibitory effect is described below.
(a) Tissue of the EHS sarcoma tumor, which produces an extracellular matrix resembling basal membrane and produces, in particular, type IV collagen (Erkin et al., Exp. Med. 145 (1977) 204-220), is incubated in analogy to the method of K. Tryggvason et al. (Biochemistry 19 (1980) 1248-1289) in the presence of ^14 C-proline and of inhibitors in various concentrations. After the incubation has been stopped, the tissue is homogenized and extracted with dilute acetic acid. After NaCl precipitation, the extracted collagen was hydrolyzed with 6 M HCl, and the ratio of ^14 C-proline to ^14 C-hydroxyproline was determined.
(b) Isolated calvariae are incubated in analogy to the method of B. Peterkovsky and R. DiBlasio (Anal. Biochem. 66 (1975) 279-286) in the presence of U-^14 C-proline and inhibitors. After the incubation has been stopped, the calvariae are homogenized, and the collagen is extracted with dilute acetic acid. After hydrolysis of the extract with 6 M HCl, the ratio of ^14 C-proline to ^14 C-hydroxyproline is determined.

proline hydroxylase [2] = target: T1, proline hydroxylase (Gallus gallus, UniProt P16924); details: cited from earlier work
T1 sequence (P16924 1-516): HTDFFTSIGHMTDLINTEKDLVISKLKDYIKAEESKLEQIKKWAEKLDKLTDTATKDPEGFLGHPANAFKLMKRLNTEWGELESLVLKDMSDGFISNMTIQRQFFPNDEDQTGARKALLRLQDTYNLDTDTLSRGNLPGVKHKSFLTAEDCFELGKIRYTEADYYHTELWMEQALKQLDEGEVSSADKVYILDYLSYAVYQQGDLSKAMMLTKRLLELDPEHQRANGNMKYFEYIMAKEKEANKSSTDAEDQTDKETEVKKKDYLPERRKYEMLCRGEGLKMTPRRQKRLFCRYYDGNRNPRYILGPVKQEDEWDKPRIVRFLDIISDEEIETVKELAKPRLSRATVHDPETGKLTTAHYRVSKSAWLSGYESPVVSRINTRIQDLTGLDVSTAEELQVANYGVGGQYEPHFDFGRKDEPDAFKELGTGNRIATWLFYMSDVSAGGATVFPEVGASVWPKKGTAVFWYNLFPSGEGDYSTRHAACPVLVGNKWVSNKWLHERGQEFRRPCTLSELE
T1 sequence (P09102 23-515 partner): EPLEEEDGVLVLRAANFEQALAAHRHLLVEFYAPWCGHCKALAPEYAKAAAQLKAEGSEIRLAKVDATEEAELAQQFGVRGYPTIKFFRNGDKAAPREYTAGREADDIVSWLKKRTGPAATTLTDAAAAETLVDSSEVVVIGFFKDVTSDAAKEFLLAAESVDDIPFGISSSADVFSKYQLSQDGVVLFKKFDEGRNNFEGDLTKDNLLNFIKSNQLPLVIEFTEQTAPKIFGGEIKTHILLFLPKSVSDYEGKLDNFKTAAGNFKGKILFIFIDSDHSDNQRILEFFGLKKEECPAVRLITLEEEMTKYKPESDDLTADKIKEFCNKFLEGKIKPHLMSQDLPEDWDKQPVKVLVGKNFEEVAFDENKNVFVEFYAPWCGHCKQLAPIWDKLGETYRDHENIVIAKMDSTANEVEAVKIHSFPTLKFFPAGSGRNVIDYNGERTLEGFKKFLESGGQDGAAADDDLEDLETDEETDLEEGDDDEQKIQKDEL

[3] = tested on: collagen biosynthesis in cell culture; details: cited from earlier work
[4] = tested on: Clq biosynthesis by macrophages; details: cited from earlier work

For O=C(O)c1ccc(C(=O)O)nc1 [H 5], which IC50 (proline hydroxylase [1]) is on record?
Its IC50 is 2100 µM.

And the “inhibition of proline hydroxylase” value (proline hydroxylase [2])?
Its value is “effectively inhibited”.

What about the “inhibitory effectiveness in cell culture” value [3] of the same molecule?
Its value is “effective inhibitors only in very high concentrations”.

With c1ccc(-c2ccccn2)nc1 [α,α'-dipyridyl] as the molecule, how does the “inhibition of Clq biosynthesis by macrophages” value [4] read?
Its value is “leads to inhibition of Clq biosynthesis”.

For O=C(O)c1ccnc(C(=O)O)c1 [H 4], which IC50 (proline hydroxylase [1]) is on record?
Its IC50 is 670 µM.

And the “inhibition of proline hydroxylase” value (proline hydroxylase [2])?
The value was “effectively inhibited”.

And the “inhibitory effectiveness in cell culture” value [3]?
Its value is “effective inhibitors only in very high concentrations”.

With CCOC(=O)c1ccnc(C(=O)OCC)c1 [C2 H5 4] as the molecule, how does the IC50 (proline hydroxylase [1]) read?
The IC50 was 3 µM.

With CCOC(=O)c1ccc(C(=O)OCC)nc1 [C2 H5 5] as the molecule, how does the IC50 (proline hydroxylase [1]) read?
The IC50 was 90 µM.

From patent US4717727A, “Esters of pyridine-2,4- and 2,5-dicarboxylic acid as medicaments for the inhibition of proline hydroxylase and lysine hydroxylase” (Hoechst Aktiengesellschaft, priority 1984, dated 1988)
